Measurements as given in patent US7351389B2, “Aminocarboxylate ligands having substituted aromatic amide moieties” (Bracco International B.V., priority 1991, dated 2008).

Tests used:
[1] = T1 relaxivity of gadolinium complexes (IBM Minispec spin analyzer); assay type: physicochemical; settings: Gd(L) complex, 20 MHz, 39±1° C.; for T1 Relaxivity: aqueous solutions, 0.1-5 mM Gd
Protocol: The T1 relaxivity was measured for nine prior art gadolinium complexes (1-9) as compared to novel gadolinium complexes using the ligands of Examples 1, 2 and 3 (#10, 11 and 12, respectively, in the Table below). Relaxivity was measured on an IBM Minispec spin analyzer operating at 20 MHz and 39±1° C. Aqueous solutions were used in 0.1-5 mM Gd concentration range.

[2] = chelating a paramagnetic ion, e.g., Gd; cited from earlier work
[3] = chelating a paramagnetic ion, e.g., Gd; cited from earlier work; remark: listed apart in the source

Row | Compound | relaxivity (comparison in words of Table 1) [1] | T1 Relaxivity [1] [mM⁻¹ s⁻¹] | water solubility [2] | relaxivity [3]
1 | O=C(O)CN1CCN(CC(=O)O)CCN(CC(=O)Nc2cc(C(=O)NC(CO)CO)cc(C(=O)NC(CO)CO)c2)CCN(CC(=O)O)CC1 [HAS-DO3A] | especially high | 5.4 |  | 
2 | 10-[2-[[3,5-Bis[[(2,3-dihydroxypropyl)amino]-carbonyl]phenyl]amino]-2-oxoethyl]-1,4,7,10-tetraazacyclododecane-1,4,7-triacetic acid, monogadolinium complex [HAA-DO3A] | especially high | 5.8 |  | 
3 | O=C(O)CN(CCN(CC(=O)O)CC(=O)O)CCN(CC(=O)O)CC(=O)O (Gd complex, metal not drawn) [DTPA, diethylenetriaminepentaacetic acid, reference compound] |  | 3.7 |  | 
4 | 10-[2-[[3,5-Bis[[(2-methylbutyl)amino]carbonyl]-phenyl]amino]2-oxoethyl]1,4,7,10-tetraazacyclododecane-1,4,7-triacetic acid, monogadolinium complex [AAA-DO3A] | especially high | 5.9 |  | 
5 | O=C(O)CN1CCN(CC(=O)O)CCN(CC(=O)O)CCN(CC(=O)O)CC1 [DOTA, reference compound] |  | 3.4 |  | 
6 | O=C(O)CN1CCN(CC(=O)O)CCN(CC(=O)Nc2ccccc2)CCN(CC(=O)O)CC1 |  |  | poor water solubility | acceptable relaxivity
7 | O=C(O)CN(CCN(CC(=O)O)C(=O)NCC(O)CO)CCN(CC(=O)O)C(=O)NCC(O)CO (centres unmarked) (Gd complex, metal not drawn) [DTPA-HA, reference compound] |  | 4.4 |  | 
